From patent US20140030368A1, “COMPOSITION FOR PREVENTING OR TREATING A RESPIRATORY DISEASE CONTAINING A MIXED HERBAL EXTRACT OF CNIDIUM OFFICINALE ROOT AND POLYGONI CUSPIDATI ROOT” (WHANIN PHARMACEUTICAL CO., LTD., priority 2011, published 2014) come the findings set out here.

What all share (assay type): in vivo, mice
Test [1] concerns IL-4 (interleukin-4). Kind of test: T cell-derived cytokine from lung tissue, ovalbumin-induced asthma/COPD model. The procedure: In order to examine whether the extract of the present invention has the effect of inhibiting adaptive immune responses in an ovalbumin (OVA)-induced asthma/chronic obstructive pulmonary disease model, the content of T cell-derived cytokines isolated from lung tissue was measured (see Seong Gyu Jeon et al., J. Allergy Clin. Immunol., 2007, 119, 831-837).
Specifically, a mixture of 75 μg of ovalbumin (OVA, Sigma) and 2 mg of aluminum hydroxide (Alum, Sigma) was intraperitoneally administered twice (days 0 and 7) into BALB/c female mice (6 weeks old; provided from Animal Laboratory in Biotech Center, Pohang University of Science & Technology) to sensitize the mice. At 14, 15 and 21 days after the first sensitization date, 50 μg of ovalbumin in PBS was challenged into the nasal cavity to induce asthma and chronic obstructive pulmonary disease. […]
Then, the lung tissue was finely cut with a blade and incubated with 5 ml of 1× Trypsin-EDTA and 1000 units of chollagenase at 37° C. for 10 […]. […] Then, the supernatant was collected, and the amount of cytokine IL-4 (interleukin-4) in the supernatant was measured using an ELISA (enzyme-linked immunosorbent assay).

Test [2] has as its system anti-E. coli-EV-specific IgG1. As to the kind of experiment: Antigen-specific antibody in serum, E. coli-EV-induced model (ELISA). The protocol: (§1) In order to examine whether the extract of the present invention has the ability to produce an antigen-specific antibody in an E. coli-EV-induced asthma/chronic obstructive pulmonary disease model, the E. coli-EV-induced asthma/chronic obstructive pulmonary disease model was prepared by treatment with each of the extract of Example 2 and a comparative drug in the same manner as described in Test Example 8-1. At 48 hours after the final challenge, the mice were anesthetized by intraperitoneal injection with ketamine and xylazine. Then, blood was collected from the heart using a 1 ml syringe, and serum was separated from the blood by centrifugation. Then, anti-E. coli-EV-specific IgG1 and IgG2a antibodies in the serum were measured according to an ELISA assay, and the results of the measurement are shown in Table 15 below.

Test [3] has as its system anti-E. coli-EV-specific IgG2a. The description is as above. The protocol: as §1
Test [4] deals with anti-ovalbumin-specific IgG1 antibody. Kind of test: Antigen-specific antibody in serum, LPS-induced asthma/COPD model (ELISA). The protocol: In order to examine whether the extract of the present invention has the ability to produce an antigen-specific antibody in an LPS-induced asthma/chronic obstructive pulmonary disease model, the LPS-induced asthma/chronic obstructive pulmonary disease model was prepared by treatment with each of the extract of Example 2 and a comparative drug in the same manner as described in Test Example 7-1. At 48 hours after the final challenge, the mice were anesthetized by intraperitoneal injection with ketamine and xylazine. Then, blood was collected from the heart using a 1 ml syringe, and serum was separated from the blood by centrifugation. Then, an anti-ovalbumin-specific IgG1 antibody in the serum was measured according to an ELISA assay, and the results of the measurement are shown in Table 11 below.
For orientation: In an ELISA, binding on a coated surface is turned into a signal by an enzyme label.

Test [5] deals with inflammatory cells in pulmonary bronchoalveolar lavage. Kind of test: Inflammatory cells in pulmonary bronchoalveolar lavage, LPS-induced asthma/COPD model. The following applies: ovalbumin + LPS model. The protocol:
Whether the extract of the present invention has the effect of inhibiting pulmonary bronchial inflammation in an LPS (lipopolysaccharide)-induced asthma/chronic obstructive pulmonary disease model was examined (see You-Sun Kim et al., J. Immunol., 2010, 185, 5648-5655; Jun-Pyo Choi et al., Allergy, 2010, 65, 1322-1330).
Specifically, a mixture of 75 μg of ovalbumin and 10 μg of LPS (Sigma) was intranasally administered a total of four times (days 0, 1, 2 and 7) into C57BL/6 male mice (6 weeks old; provided from the Animal Laboratory in Biotech Center, Pohang University of Science & Technology) to sensitize the mice. At 14, 15, 21 and 22 days from the first sensitization date, 50 μg of ovalbumin in PBS was challenged into the nasal cavity to induce asthma and chronic obstructive pulmonary disease. In addition, at 14, 15, 21 and 22 days at which challenge was performed, each of 1.0% CMC, 100, 200 and 400 mg/10 ml/kg of the extract of Example 2, 1 mg/10 ml/Kg of the comparative drug dexamethason and 10 mg/10 ml/kg of the comparative drug montelukast was orally administered twice a day. At 48 hours after the final challenge, the mice were anesthetized by intraperitoneal administration of ketamine and xylazine, and the organ of the mice was exposed and a catheter was inserted therein. Then, the bronchoalveoli were laved with each of 0.8 and 0.7 ml of sterile phosphate buffered saline to obtain a bronchoalveolar lavage. The bronchoalveolar lavage was centrifuged at 4° C. at 1000 rpm for 5 minutes, and the supernatant was removed. 2 ml of 10% FBS-IMDM (fetal bovine serum—Iscove's Modified Dulbecco's Medium) was added to the cells which were then counted. Then, the cells were cytospun, plated on a slide, and Diff-Quick stained. At least 300 inflammatory cells were observed by the staining method and classified into eosinophils, macrophages, neutrophils and lymphocytes, and the cell numbers of the groups treated with dexamethason, montelukast and the extract of Example 2 were compared with the ratios of inflammatory cells in the pulmonary bronchoalveolar lavages of the negative control group and the positive control group, thereby evaluating the inhibitory effects of the test materials against airway inflammation.

For test [6], the system named is IL-17. Kind of test: T cell-derived cytokine from lung tissue, E. coli-EV-induced model (ELISA). The procedure: In order to examine whether the extract of the present invention has the effect of inhibiting T cell-derived cytokine isolated from the lung tissue of an E. coli-EV-derived asthma/chronic obstructive pulmonary disease model, the following test was performed.
Specifically, the […] asthma/chronic obstructive pulmonary disease model was prepared by treatment with each of the extract of Example 2 and a comparative drug in the same manner as described in Test Example 8-1. At 6 hours after the final challenge, the mice were anesthetized by intraperitoneal injection with ketamine and xylazine, and lung tissue was obtained from the mice. The lung tissue was cut finely with a blade and incubated with 5 ml of 1× Trypsin-EDTA and 1000 units of chollagenase at 37 °C for 10 minutes. Then, the tissue was passed through a 100 μm mesh to collect only immune cells. To stimulate T cells among the collected cells, 1×10^5 cells and anti-CD28 (1 μg/ml) were added to a 96-well plate coated with anti-CD3 (1 μg/ml) and were incubated in an incubator at 37° C. for 12 hours. Next, the supernatant was collected, and the amounts of cytokines in the supernatant were measured using an ELISA assay.

As to `C[C@@H]1C[C@H]2[C@@H]3CCC4=CC(=O)C=C[C@]4(C)[C@@]3(F)[C@@H](O)C[C@]2(C)[C@@]1(O)C(=O)CO` [Dexamethason, dexamethason], in test [1] (1 mg/kg b.i.d. oral), the “IL-4 inhibition rate (%)” value turned out to be 43.57%. Further, in test [2] (1 mg/kg b.i.d.), the “Inhibition rate(%) IgG1” value turned out to be 93.8%. Moreover, in test [3] (1 mg/kg b.i.d.), the “Inhibition rate(%) IgG2a” value was found to be 55.7%. Moreover, in test [4] (1 mg/kg b.i.d.), the IGg1 in serum is 28.94 and the “IGg1 in serum, Inhibition rate (%)” value is 57.35%. Also, in test [5] (1 mg/kg b.i.d.), the “Inhibition rate(%) Eosinophils” value is on record as 51.1%, the “Inhibition rate(%) Macrophages” value was 27.3% and the “Inhibition rate(%) Total cells” value is 40.4%. Also, the “IL-17 inhibition rate (%)” value in test [6] (1 mg/kg b.i.d.) was 1.12%.

Consider `CC(C)(O)c1ccccc1CC[C@@H](SCC1(CC(=O)O)CC1)c1cccc(/C=C/c2ccc3ccc(Cl)cc3n2)c1` [montelukast], for which, in test [1] (10 mg/kg b.i.d. oral), the “IL-4 inhibition rate (%)” value stood at 14.07%. In test [2] (10 mg/kg b.i.d.), the “Inhibition rate(%) IgG1” value came out at 59.7%. The “Inhibition rate(%) IgG2a” value in test [3] (10 mg/kg b.i.d.) is listed as 27.2%. In test [4] (10 mg/kg b.i.d.), the IGg1 in serum worked out at 44.84 and the “IGg1 in serum, Inhibition rate (%)” value was determined as 33.91%. For the same compound, in test [5] (10 mg/kg b.i.d.), the “Inhibition rate(%) Eosinophils” value came out at 13.3%, the “Inhibition rate(%) Macrophages” value amounted to 8.2% and the “Inhibition rate(%) Total cells” value was determined as 10.6%. Also, the “IL-17 inhibition rate (%)” value in test [6] (10 mg/kg b.i.d.) is given as 0.22%.
